Where two headings read alike, the source gives them in different places.
How the values were obtained:
[1] = molecular target: FynT enzyme (Homo sapiens (Human), UniProt P06241); assay: FynT enzyme activity (IMAP fluorescence polarization assay); assay type: biochemical; conditions: 60 min pre-incubation, 0.2 μM ATP
In short: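 Human FynT pre-incubated with compounds 60 min at room temperature, then reacted 2 h at room temperature with fluorescein-labelled p34cdc2 peptide (100 nM final). Stopped with IMAP binding solution; fluorescence polarization read after 60 min. Activity as % of ±ATP control difference; EC50 by curve fitting.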

[2] = molecular target: Lyn enzyme (Homo sapiens (Human), UniProt P07948); assay: Lyn enzyme activity (IMAP fluorescence polarization assay)
[3] = molecular target: Lck enzyme (Homo sapiens (Human), UniProt P06239); assay: Lck enzyme activity (IMAP fluorescence polarization assay); conditions: read-out: EC50 Lck activity values; IMAP, 60 min pre-incubation, 6 μM ATP; bin bound in μM
[4] = molecular target: Src enzyme (Homo sapiens (Human), UniProt P12931); assay: Src enzyme activity (IMAP fluorescence polarization assay); conditions: read-out: EC50 Src activity values; IMAP, 60 min pre-incubation, 4 μM ATP
[5] = molecular target: Btk enzyme (His-Btk) (Homo sapiens (Human), UniProt Q06187); assay: Btk enzyme activity (IMAP fluorescence polarization assay)
Protocol: Inhibition of kinase activity can be measured using the Immobilized Metal Assay for Phosphochemicals (IMAP) assay. IMAP is a homogeneous fluorescence polarization (FP) assay based on affinity capture of phosphorylated peptide substrates. IMAP uses fluorescein-labeled peptide substrates that, upon phosphorylation by a protein kinase, bind to so-called IMAP nanoparticles, which are derivatized with trivalent metal complexes.
Final peptide substrate concentration in assay is 50 nM.

[6] = read-out: EC50 Lyn activity values, 60 min pre-incubation, 2 μM ATP, bin bound in μM
[7] = IMAP, 60 min pre-incubation, 5 μM ATP, bin bound in nM
[8] = IMAP, 60 min pre-incubation, 5 μM ATP, bin bound in μM

Chain of Lyn enzyme (P07948 whole entry): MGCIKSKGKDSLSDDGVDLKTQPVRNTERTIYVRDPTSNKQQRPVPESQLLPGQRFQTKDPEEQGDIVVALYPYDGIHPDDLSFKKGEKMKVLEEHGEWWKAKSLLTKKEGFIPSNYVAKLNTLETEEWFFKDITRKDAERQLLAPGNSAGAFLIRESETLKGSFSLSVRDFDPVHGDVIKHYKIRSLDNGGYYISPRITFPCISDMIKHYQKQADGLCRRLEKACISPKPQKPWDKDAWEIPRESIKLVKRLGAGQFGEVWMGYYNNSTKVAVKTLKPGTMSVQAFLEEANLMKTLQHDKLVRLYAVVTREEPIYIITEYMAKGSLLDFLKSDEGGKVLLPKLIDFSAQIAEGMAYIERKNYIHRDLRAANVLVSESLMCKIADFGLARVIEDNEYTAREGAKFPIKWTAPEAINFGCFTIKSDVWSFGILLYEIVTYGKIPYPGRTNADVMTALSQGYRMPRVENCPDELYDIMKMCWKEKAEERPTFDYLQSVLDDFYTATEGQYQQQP
Chain of Src enzyme (P12931 whole entry, looked up): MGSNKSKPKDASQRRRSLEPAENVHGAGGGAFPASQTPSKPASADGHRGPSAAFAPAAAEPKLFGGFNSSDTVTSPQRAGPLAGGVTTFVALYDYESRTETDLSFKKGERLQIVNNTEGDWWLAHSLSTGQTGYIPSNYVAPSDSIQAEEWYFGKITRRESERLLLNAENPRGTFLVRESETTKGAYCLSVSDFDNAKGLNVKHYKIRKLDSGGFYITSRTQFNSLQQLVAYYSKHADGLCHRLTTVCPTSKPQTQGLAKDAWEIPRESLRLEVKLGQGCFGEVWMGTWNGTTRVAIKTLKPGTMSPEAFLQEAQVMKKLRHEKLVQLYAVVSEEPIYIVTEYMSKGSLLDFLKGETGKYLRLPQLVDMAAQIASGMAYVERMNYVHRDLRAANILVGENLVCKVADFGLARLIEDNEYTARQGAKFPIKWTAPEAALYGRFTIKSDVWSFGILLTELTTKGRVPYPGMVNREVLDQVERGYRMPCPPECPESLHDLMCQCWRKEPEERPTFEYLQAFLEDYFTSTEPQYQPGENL
Chain of FynT enzyme (P06241 other isoform, or with tags, fused parts or gaps): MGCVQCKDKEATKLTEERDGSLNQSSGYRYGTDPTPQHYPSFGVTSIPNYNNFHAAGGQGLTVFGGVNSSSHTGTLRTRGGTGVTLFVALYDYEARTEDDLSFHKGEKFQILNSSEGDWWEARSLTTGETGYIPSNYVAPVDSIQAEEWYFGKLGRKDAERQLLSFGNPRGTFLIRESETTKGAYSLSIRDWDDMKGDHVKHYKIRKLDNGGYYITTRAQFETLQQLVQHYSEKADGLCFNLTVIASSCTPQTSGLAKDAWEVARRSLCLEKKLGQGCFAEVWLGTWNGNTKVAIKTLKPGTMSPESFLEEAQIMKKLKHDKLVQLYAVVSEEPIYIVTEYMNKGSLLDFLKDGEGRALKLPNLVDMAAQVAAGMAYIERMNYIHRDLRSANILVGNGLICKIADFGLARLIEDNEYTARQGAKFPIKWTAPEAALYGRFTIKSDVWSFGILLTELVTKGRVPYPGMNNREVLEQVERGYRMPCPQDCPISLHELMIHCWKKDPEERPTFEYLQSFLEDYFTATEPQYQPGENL
Chain of Lck enzyme (P06239 whole entry): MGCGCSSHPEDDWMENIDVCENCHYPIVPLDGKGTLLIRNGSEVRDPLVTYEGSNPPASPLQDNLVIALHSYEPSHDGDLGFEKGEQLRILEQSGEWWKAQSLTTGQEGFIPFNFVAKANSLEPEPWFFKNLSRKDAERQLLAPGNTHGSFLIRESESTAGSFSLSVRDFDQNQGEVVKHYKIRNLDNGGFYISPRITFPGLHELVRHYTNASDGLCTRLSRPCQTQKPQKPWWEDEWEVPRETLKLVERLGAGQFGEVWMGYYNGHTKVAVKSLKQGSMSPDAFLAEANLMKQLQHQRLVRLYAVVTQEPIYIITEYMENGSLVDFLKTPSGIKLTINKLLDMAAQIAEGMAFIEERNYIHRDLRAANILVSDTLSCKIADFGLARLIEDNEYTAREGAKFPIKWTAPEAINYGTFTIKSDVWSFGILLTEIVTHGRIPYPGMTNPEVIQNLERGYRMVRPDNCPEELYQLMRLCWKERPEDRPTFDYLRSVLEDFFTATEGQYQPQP
Chain of Btk enzyme (His-Btk) (Q06187 whole entry): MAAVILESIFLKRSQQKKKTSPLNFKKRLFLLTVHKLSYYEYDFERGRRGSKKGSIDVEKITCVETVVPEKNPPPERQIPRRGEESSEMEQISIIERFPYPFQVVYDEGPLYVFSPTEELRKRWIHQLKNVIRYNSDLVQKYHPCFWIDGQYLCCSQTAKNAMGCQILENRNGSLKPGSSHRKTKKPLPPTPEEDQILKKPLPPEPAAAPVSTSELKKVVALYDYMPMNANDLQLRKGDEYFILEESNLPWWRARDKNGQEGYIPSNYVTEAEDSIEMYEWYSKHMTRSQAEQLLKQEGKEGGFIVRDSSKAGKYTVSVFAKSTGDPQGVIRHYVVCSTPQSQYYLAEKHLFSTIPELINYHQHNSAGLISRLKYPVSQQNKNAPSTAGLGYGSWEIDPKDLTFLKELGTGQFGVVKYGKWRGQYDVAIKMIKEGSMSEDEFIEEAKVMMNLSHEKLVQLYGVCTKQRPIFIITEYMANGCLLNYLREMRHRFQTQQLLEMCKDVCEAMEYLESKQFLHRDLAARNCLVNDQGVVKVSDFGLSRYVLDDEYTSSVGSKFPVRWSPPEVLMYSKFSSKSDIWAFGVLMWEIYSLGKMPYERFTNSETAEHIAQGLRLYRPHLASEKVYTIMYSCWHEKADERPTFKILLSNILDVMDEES

| EC50 [1] [nM] | EC50 [2, 6] [µM] | EC50 [3] [µM] | EC50 [4] [nM] | EC50 ([5]; read-out: EC50 Btk activity values, IMAP, 60 min pre-incubation, 5 μM ATP, bin bound in nM) [nM] | EC50 [5] [nM] | EC50 Btk activity values [5, 7] [nM] | EC50 Btk activity values [5, 8] [nM] | EC50 ([2]; EC50 Lyn activity values, 60 min pre-incubation, 2 μM ATP, bin bound in μM) [µM] | EC50 ([5]; read-out: EC50 Btk activity values, IMAP, 60 min pre-incubation, 5 μM ATP, bin bound in μM) [nM] | SMILES |
| --- | --- | --- | --- | --- | --- | --- | --- | --- | --- | --- |
| ≥ 1000 | ≥ 1 | ≥ 1 | ≥ 1000 | < 10 |  |  |  |  |  | CCCc1ccnc(NC(=O)c2ccc(-c3nc([C@@H]4CCCN4C(=O)c4ccnc(Cl)n4)n4ccnc(N)c34)cc2)c1 [Example 79, (S)-4-(8-amino-3-(1-(2-chloropyrimidine-4-carbonyl)pyrrolidin-2-yl)imidazo[1,5-a]pyrazin-1-yl)-N-(4-propylpyridin-2-yl)benzamide] |
| ≥ 1000 | ≥ 1 | ≥ 1 | ≥ 1000 |  | 10 to 100 | <100 |  |  |  | Nc1nccn2c([C@@H]3CCCCN3C(=O)c3ccnc(Cl)n3)nc(-c3ccc(C(=O)Nc4cc(F)ccn4)cc3)c12 [Example 80, (S)-4-(8-amino-3-(1-(2-chloropyrimidine-4-carbonyl)piperidin-2-yl)imidazo[1,5-a]pyrazin-1-yl)-N-(4-fluoropyridin-2-yl)benzamide] |
| ≥ 1000 | ≥ 1 | ≥ 1 | ≥ 1000 |  | 10 to 100 | <100 |  |  |  | COC/C=C/C(=O)N1CCCC[C@H]1c1nc(-c2ccc(C(=O)Nc3cc(F)ccn3)cc2)c2c(N)nccn12 [Example 81, (S,E)-4-(8-amino-3-(1-(4-methoxybut-2-enoyl)piperidin-2-yl)imidazo[1,5-a]pyrazin-1-yl)-N-(4-fluoropyridin-2-yl)benzamide] |
| ≥ 1000 | ≥ 1 | ≥ 1 | ≥ 1000 |  | 10 to 100 | <100 |  |  |  | COC/C=C/C(=O)N1CCC[C@H]1c1nc(-c2ccc(C(=O)Nc3nc4c(s3)CCCC4)cc2)c2c(N)nccn12 [Example 82, (S,E)-4-(8-amino-3-(1-(4-methoxybut-2-enoyl)pyrrolidin-2-yl)imidazo[1,5-a]pyrazin-1-yl)-N-(4,5,6,7-tetrahydrobenzo[d]thiazol-2-yl)benzamide] |
| ≥ 1000 | ≥ 1 | ≥ 1 | ≥ 1000 |  | 10 to 100 | <100 |  |  |  | COc1cc(-c2nc([C@@H]3CCCN3C(=O)c3ccnc(Cl)n3)n3ccnc(N)c23)ccc1C(=O)Nc1ccccn1 [Example 83, (S)-4-(8-amino-3-(1-(2-chloropyrimidine-4-carbonyl)pyrrolidin-2-yl)imidazo[1,5-a]pyrazin-1-yl)-2-methoxy-N-(pyridin-2-yl)benzamide] |
| ≥ 1000 | ≥ 1 | ≥ 1 | ≥ 1000 |  | 10 to 100 | <100 |  |  |  | Nc1nccn2c([C@@H]3CCCN3C(=O)c3ccnc(Cl)n3)nc(-c3ccc(C(=O)Nc4ccccn4)c(F)c3)c12 [Example 84, (S)-4-(8-amino-3-(1-(2-chloropyrimidine-4-carbonyl)pyrrolidin-2-yl)imidazo[1,5-a]pyrazin-1-yl)-2-fluoro-N-(pyridin-2-yl)benzamide] |
| ≥ 1000 | ≥ 1 | ≥ 1 | ≥ 1000 |  | 100 to 1000 |  | <1000 |  |  | COC/C=C/C(=O)N1CCCC[C@H]1c1nc(-c2ccc(C(=O)Nc3ccccn3)cc2C)c2c(N)nccn12 [Example 85, 4-(8-amino-3-((S)-1-((E)-4-methoxybut-2-enoyl)piperidin-2-yl)imidazo[1,5-a]pyrazin-1-yl)-3-methyl-N-(pyridin-2-yl)benzamide] |
| ≥ 1000 | ≥ 1 | ≥ 1 | ≥ 1000 |  | 100 to 1000 |  | <1000 |  |  | COC/C=C/C(=O)N1CCCC[C@H]1c1nc(-c2ccc(C(=O)Nc3ccncn3)cc2)c2c(N)nccn12 [Example 86, (S,E)-4-(8-amino-3-(1-(4-methoxybut-2-enoyl)piperidin-2-yl)imidazo[1,5-a]pyrazin-1-yl)-N-(pyrimidin-4-yl)benzamide] |
| ≥ 1000 | ≥ 1 | ≥ 1 | ≥ 1000 |  | 100 to 1000 |  | <1000 |  |  | CCCc1ccnc(NC(=O)c2ccc(-c3nc([C@@H]4CCCN4C(=O)/C=C/COC)n4ccnc(N)c34)c(C)c2)c1 [Example 87, 4-(8-amino-3-((S)-1-((E)-4-methoxybut-2-enoyl)pyrrolidin-2-yl)imidazo[1,5-a]pyrazin-1-yl)-3-methyl-N-(4-propylpyridin-2-yl)benzamide] |
| ≥ 1000 | ≥ 1 | ≥ 1 | ≥ 1000 |  | 100 to 1000 |  | <1000 |  |  | COC/C=C/C(=O)N1CCCC[C@H]1c1nc(-c2ccc(C(=O)Nc3nccc(C)n3)cc2)c2c(N)nccn12 [Example 88, (S,E)-4-(8-amino-3-(1-(4-methoxybut-2-enoyl)piperidin-2-yl)imidazo[1,5-a]pyrazin-1-yl)-N-(4-methylpyrimidin-2-yl)benzamide] |
| ≥ 1000 |  | ≥ 1 | ≥ 1000 |  | 10 to 100 | <100 |  | ≥ 1 |  | CC#CC(=O)N1CCCC[C@H]1c1nc(-c2ccc(C(=O)Nc3nccc(C)n3)cc2)c2c(N)nccn12 [Example 89, (S)-4-(8-amino-3-(1-but-2-ynoylpiperidin-2-yl)imidazo[1,5-a]pyrazin-1-yl)-N-(4-methylpyrimidin-2-yl)benzamide] |
| ≥ 1000 | ≥ 1 | ≥ 1 | ≥ 1000 |  | 100 to 1000 |  | <1000 |  |  | Nc1nccn2c([C@@H]3CCCCN3C(=O)c3ccnc(Cl)n3)nc(-c3ccc(C(=O)Nc4ncccn4)cc3)c12 [Example 90, (S)-4-(8-amino-3-(1-(2-chloropyrimidine-4-carbonyl)piperidin-2-yl)imidazo[1,5-a]pyrazin-1-yl)-N-(pyrimidin-2-yl)benzamide] |
| ≥ 1000 | ≥ 1 | ≥ 1 | ≥ 1000 |  |  |  |  |  | ≥ 1000 | C=C(C)C(=O)N1CCC[C@H]1c1nc(-c2ccc(C(=O)Nc3ccccn3)cc2)c2c(N)nccn12 [Example 91, (S)-4-(8-amino-3-(1-methacryloylpyrrolidin-2-yl)imidazo[1,5-a]pyrazin-1-yl)-N-(pyridin-2-yl)benzamide] |
| ≥ 1000 | ≥ 1 | ≥ 1 | ≥ 1000 |  | 100 to 1000 |  | <1000 |  |  | C=C(C(=O)N1CCC[C@H]1c1nc(-c2ccc(C(=O)Nc3ccccn3)cc2)c2c(N)nccn12)C(F)(F)F [Example 92, (S)-4-(8-amino-3-(1-(2-(trifluoromethyl)acryloyl)pyrrolidin-2-yl)imidazo[1,5-a]pyrazin-1-yl)-N-(pyridin-2-yl)benzamide] |
| ≥ 1000 | ≥ 1 | ≥ 1 | ≥ 1000 |  | 100 to 1000 |  | <1000 |  |  | N#CCN1CCC[C@H]1c1nc(-c2ccc(C(=O)Nc3ccccn3)cc2)c2c(N)nccn12 [Example 94, (S)-4-(8-amino-3-(1-(cyanomethyl)pyrrolidin-2-yl)imidazo[1,5-a]pyrazin-1-yl)-N-(pyridin-2-yl)benzamide] |
| ≥ 1000 | ≥ 1 | ≥ 1 | ≥ 1000 |  | 10 to 100 | <100 |  |  |  | COC/C=C/C(=O)NCc1nc(-c2ccc(C(=O)Nc3ccccn3)cc2)c2c(N)nccn12 [Example 95, (E)-4-(8-amino-3-((4-methoxybut-2-enamido)methyl)imidazo[1,5-a]pyrazin-1-yl)-N-(pyridin-2-yl)benzamide] |
| ≥ 1000 | ≥ 1 | ≥ 1 | ≥ 1000 |  | 10 to 100 | <100 |  |  |  | CC#CC(=O)N1CCC[C@H]1c1nc(-c2ccc(C(=O)Nc3cc(N4CCCC4)ccn3)cc2)c2c(N)nccn12 [Example 96, (S)-4-(8-amino-3-(1-but-2-ynoylpyrrolidin-2-yl)imidazo[1,5-a]pyrazin-1-yl)-N-(4-(pyrrolidin-1-yl)pyridin-2-yl)benzamide] |
| ≥ 1000 | ≥ 1 | ≥ 1 | ≥ 1000 |  | 10 to 100 | <100 |  |  |  | COC/C=C/C(=O)N1CCCCC[C@H]1c1nc(-c2ccc(C(=O)Nc3ccccn3)cc2)c2c(N)nccn12 [Example 97, (E)-4-(8-amino-3-(1-(4-methoxybut-2-enoyl)azepan-2-yl)imidazo[1,5-a]pyrazin-1-yl)-N-(pyridin-2-yl)benzamide] |
| ≥ 1000 | ≥ 1 | ≥ 1 | ≥ 1000 |  | 10 to 100 | <100 |  |  |  | COC/C=C/C(=O)N1CCC[C@H]1c1nc(-c2ccc(C(=O)Nc3cc(C#N)ccn3)cc2)c2c(N)nccn12 [Example 98, (S,E)-4-(8-amino-3-(1-(4-methoxybut-2-enoyl)pyrrolidin-2-yl)imidazo[1,5-a]pyrazin-1-yl)-N-(4-cyanopyridin-2-yl)benzamide] |

Source: US9758524B2, “4-imidazopyridazin-1-yl-benzamides as Btk inhibitors” (Merck Sharp & Dohme B.V., priority 2011, dated 2017)
